Results: US11572372B2, “Anti-HBVtetrahydroisoxazolo[4,3-c]pyridine compounds” (CHIA TAI TIANQING PHARMACEUTICAL GROUP CO., LTD., priority 2017, dated 2023)
Where two headings read alike, the source gives them in different places.

Assays:
[1] = test system: HBV DNA in HepG2.2.15 cells; test: In vitro anti-HBV activity assay (HBV DNA in HepG2.2.15 supernatant, qPCR); type: cell-based; conditions: Hepatitis B virus, HepG2.2.15, 192 h; inhibition of HBV DNA in supernatant, 8 days culture
Method: 1) 100 μL of HepG2.2.15 cells were seeded at a number of 1.2×10^5 cells per well into a 96-well cell culture plate, and then the cells were cultured in a 37° C. incubator with 5% carbon dioxide (CO2) overnight. On day 2, the compounds to be tested were diluted with DMSO in 3-fold gradient to eight concentrations in total. Then the compounds were diluted 100-fold with culture medium, and 100 μL of the diluted compounds were taken and added to the cell-containing plate in a final volume of 200 μL, and the final concentration of DMSO was 0.5%, and two duplicate wells were used. The cells were cultured in a 37° C. incubator with 5% CO2 for 3 days. On day 5, the solutions in the cell culture plate were replaced with fresh culture medium containing the same concentrations of compounds. When culture was performed for 8 days, cell culture plate supernatant was collected for the extraction of HBV DNA.
2) Detection of HBV DNA by real-time quantitative PCR: the total DNA in the supernatant was extracted with QIAamp 96 DNA Blood Kit, and the content of HBV DNA was detected by quantitative PCR using HBV specific primers and probes. 20 μL PCR pre-mixed solution and 5 μL HBV DNA sample or HBV plasmid standard sample were added to a quantitative PCR plate for reaction. The HBV plasmid standard sample was diluted in 10-fold gradient to seven concentrations from 10^7 to 10 copies/μL. The quantitative PCR reaction procedure was as follows: pre-denaturation at 95° C. for 10 minutes; denaturation at 95° C. for 15 seconds, reaction at 60° C. for 1 minute, and this cycle was repeated 40 times. The inhibition rate of each well against HBV DNA was calculated according to the following equation, and the inhibition rate data of the compounds were subjected to a non-linear fitting analysis using GraphPad Prism software to obtain EC50 values of the compounds. HBV DNA inhibition rate %=(1−copy number of HBV DNA of the sample/copy number of HBV DNA of DMSO control)*100% The assay results are shown in Table 1 below.

[2] = Pharmacokinetic study for mouse (single intravenous or gavage administration); type: in vivo, mice; conditions: for clearance / half-life / AUC(0-t) / Vd / Cmax / Tmax: plasma; for AUC(0-t): read-out: AUC0-24 h; for Vd: read-out: Vdss
Method: This experiment aims to evaluate the pharmacokinetic behavior of the compounds after a single intravenous or gavage administration in mice. As for the intravenous administration, the compounds were formulated into 0.5 mg/mL clear solutions, vehicle: 5% DMSO/5% 12-hydroxy stearate (solutol)/90% water; as for the gavage administration, the compounds were formulated into 2 mg/mL suspensions, vehicle: 0.5% sodium carboxymethylcellulose/0.2% Tween 80/99.3% water.
The concentrations of the compounds in plasma were determined by high-performance liquid chromatography-tandem mass spectrometry (LC-MS/MS). The retention time, chromatogram acquisition and integration of the chromatograms of the compounds and the internal standard (diclofenac) were processed using the software Analyst (Applied Biosystems), and data statistics were processed using the software Watson LIMS (Thermo Fisher Scientific) or Analyst (Applied Biosystems). The concentration unit of the analyte in the sample is ng/mL, 3 significant digits were retained, and all the values represented by percentages (e.g., % deviation and % coefficient of variation, etc.) have one decimal place. Each calibration curve contains at least 6 concentration levels. The calibration standard samples were formulated using stock solutions from different sources from the quality control samples. If the deviation between the calculated concentration of a calibration standard sample and the indicated value exceeds ±15.0% (the lower limit of quantitation exceeds ±20.0%), such standard sample should be excluded in regression analysis. The excluded calibration standard samples should be less than 25%, and each calibration curve contains at least 6 calibration standard samples that meet the acceptable standard. If the calibration standard samples at the lower and upper limits of quantification need to be excluded, the upper and lower limits of quantification of this batch of analytes will be increased and decreased accordingly.
Plasma concentrations were processed using a non-compartmental model of the WinNonlin™ Version 6.3 (Pharsight, Mountain View, Calif.) pharmacokinetic software, and pharmacokinetic parameters were calculated using the linear logarithmic trapezoidal method. The pharmacokinetic parameters to be calculated include, but are not limited to (if the data is not allowed), T1/2, Vdss, CL, AUC0-24h of the intravenous group; Cmax, Tmax, AUC0-24h and bioavailability (F %) of the oral gavage group.

[3] = test system: HBV; test: In vivo activity assay of HBV DNA in mouse plasmid model of tail vein high-pressure injection (Example 6); design: species or system female BABL/c mice; conditions: 30 mg/Kg, gavage, twice a day
Method: (§1) The purpose of this study was to test the inhibitory effect of the compound (Example 6) against HBV in mice through a mouse model of high-pressure tail vein injection. In this experiment, female BABL/c mice were used, and the mice were 6-7 weeks old. The HBV plasmid DNA was extracted by using pAAV2-HBV 1.3 mer with Qiagen EndoFree Plasmid Giga kit at a concentration of 1000 ng/μL. The resulting solution was diluted with normal saline before use and stored at 4° C. until use.
100 μL of whole blood was taken from each mouse approximately 4 hours after the first administration On days 1, 3, and 5, and the whole blood was collected into a tube containing sodium heparin, centrifuged at 4° C. at 7000 rpm for 10 minutes, and the supernatant was taken to obtain plasma. The plasma was stored in a refrigerator at −80° C. and transported to an analytical laboratory for testing under dry ice freezing condition.
1) DNA in plasma was extracted, and the experimental procedure was carried out with reference to the instruction for QIAamp 96 DNA Blood Kit.
A qPCR reaction mixture was formulated (see Table 6). The qPCR reaction mixture, sample and standard sample were added to a 96-well reaction plate. The standard sample was plasmid DNA containing the full-length sequence of type D HBV. The standard sample was diluted from 10^7 copies/μL in 10-fold gradient to successively obtain 10^6˜10^1 copies/μL of DNA standard samples. PCR reaction: 95° C., 10 min; 95° C., 15 seconds; 60° C., 1 minute; 40 cycles.
Liver tissue was taken and homogenized with a tissue grinder. After centrifugation, the supernatant was transferred to a new centrifuge tube and digested with proteinase K digestion solution for 3 hours. The resulting mixture was cooled, and then RNAse A was added thereto to incubate for 30 minutes. The RNase A-treated mixture was extracted twice with an equal volume of phenol chloroform isoamyl alcohol to remove residual protein. The supernatant was transferred to a new centrifuge tube, and isopropanol was added thereto to precipitate the DNA. The DNA precipitation was washed twice with 70% ethanol. The precipitation was then air-dried and TE (10 mM Tris-HCl, pH 8.0, 1 mM EDTA) was added thereto to dissolve the DNA.
The DNA concentrations were measured with Nanodrop and adjusted to 10 ng/μL for all the samples. 5 μL samples were added to the quantitative PCR reaction system for quantitative PCR.
HBV DNA content=DNA content detected by HBV primer-DNA content detected by pAAV2 primer.

[4] = test system: HBV; test: In vivo activity assay of HBV DNA in mouse plasmid model of tail vein high-pressure injection (Example 23); design: species or system female BABL/c mice; conditions: 60 mg/Kg, gavage
Method: as §1, with “23)” for “6)”

With `C[C@H]1Cc2noc(-c3ccccc3)c2CN1C(=O)Nc1cc(F)c(F)c(F)c1` [Example 2] the EC50 [1] was 29.3 nM.
With `C[C@H]1Cc2noc(-c3ccc(F)cc3F)c2CN1C(=O)Nc1cc(F)c(F)c(F)c1` [Example 6] the EC50 [1] was 4.9 nM, the F ([2]; oral gavage, 10 mg/Kg) was 58.4% and the clearance ([2]; intravenous injection, 1 mg/Kg) was 2.84 mL/min/kg. It also gave a half-life ([2]; intravenous injection, 1 mg/Kg) of 9.31 h, an AUC(0-t) ([2]; intravenous injection, 1 mg/Kg) of 11.4 µM·h and a Vd ([2]; intravenous injection, 1 mg/Kg) of 2.33 L/kg. For the same molecule, the Cmax ([2]; oral gavage, 10 mg/Kg) was 4.94 µM, the Tmax ([2]; oral gavage, 10 mg/Kg) was 0.5 h and the AUC(0-t) ([2]; oral gavage, 10 mg/Kg) was 66.7 µM·h. For the same molecule, the “Log HBV DNA mean value” ([3]; liver tissue after 7 days of administration, solvent control 5.67) was 3.09 copy number/μL, the “Log HBV DNA mean value” ([3]; plasma, Day 1, solvent control 2.22, Log(LLOQ) = 1.60) was 2.23 copy number/μL and the “Log HBV DNA mean value” ([3]; plasma, Day 3, solvent control 4.51, Log(LLOQ) = 1.60) was 1.74 copy number/μL. For the same molecule, the “Log HBV DNA mean value” ([3]; plasma, Day 5, solvent control 5.01, Log(LLOQ) = 1.60) was 2.02 copy number/μL and the “Log HBV DNA mean value” ([3]; plasma, Day 7, solvent control 3.30, Log(LLOQ) = 1.60) was 1.85 copy number/μL.
`C[C@H]1Cc2noc(-c3ncccn3)c2CN1C(=O)Nc1ccc(F)c(F)c1` [Example 26] gave an EC50 [1] of 19.1 nM.
For `C[C@H]1Cc2noc(-c3ccc(F)cc3F)c2CN1C(=O)Nc1ccc(F)c(Cl)c1` [Example 20], the EC50 [1] was 8.66 nM.
For `C[C@H]1Cc2noc(-c3ncccn3)c2CN1C(=O)Nc1ccc(F)c(Cl)c1` [Example 24], the EC50 [1] was 15.6 nM.
For `C[C@H]1Cc2noc(-c3ccc(Cl)cc3)c2CN1C(=O)Nc1cc(F)c(F)c(F)c1` [Example 12], the EC50 [1] was 68.8 nM.
`C[C@H]1Cc2noc(-c3cnccn3)c2CN1C(=O)Nc1cc(F)c(F)c(F)c1` [Example 13] gave an EC50 [1] of 58.9 nM.
With `C[C@H]1Cc2noc(-c3nccs3)c2CN1C(=O)Nc1cc(F)c(F)c(F)c1` [Example 16] the EC50 [1] was 24.6 nM.
`Cc1cc(NC(=O)N2Cc3c(noc3-c3ccc(F)cc3F)C[C@@H]2C)ccc1F` [Example 21] gave an EC50 [1] of 5.58 nM.
`C[C@H]1Cc2noc(-c3ccccc3F)c2CN1C(=O)Nc1cc(F)c(F)c(F)c1` [Example 3] gave an EC50 [1] of 9 nM.
`COc1ccc(-c2onc3c2CN(C(=O)Nc2cc(F)c(F)c(F)c2)[C@@H](C)C3)cc1` [Example 9] showed an EC50 [1] of 10.5 nM.
In the case of `COc1cccc(-c2onc3c2CN(C(=O)Nc2cc(F)c(F)c(F)c2)[C@@H](C)C3)c1` [Example 8], the EC50 [1] is reported as 37.3 nM.
`C[C@H]1Cc2noc(-c3ccsn3)c2CN1C(=O)Nc1cc(F)c(F)c(F)c1` [Example 18] gave an EC50 [1] of 12.2 nM.
With `C[C@H]1Cc2noc(-c3cscn3)c2CN1C(=O)Nc1cc(F)c(F)c(F)c1` [Example 15] the EC50 [1] was 6.7 nM.
Molecule `C[C@H]1Cc2noc(-c3ccc(F)cc3)c2CN1C(=O)Nc1cc(F)c(F)c(F)c1` [Example 5] has an EC50 [1] of 24.7 nM.
For `C[C@H]1Cc2noc(-c3ccc(F)cc3F)c2CN1C(=O)Nc1ccc(F)c(C#N)c1` [Example 19], the EC50 [1] was 10.4 nM.
`C[C@H]1Cc2noc(-c3ccc(F)cn3)c2CN1C(=O)Nc1cc(F)c(F)c(F)c1` [Example 1] showed an EC50 [1] of 5.3 nM, an F ([2]; oral gavage, 10 mg/Kg) of 76.1% and a clearance ([2]; intravenous injection, 1 mg/Kg) of 5.8 mL/min/kg. The half-life ([2]; intravenous injection, 1 mg/Kg) was 5.62 h, the AUC(0-t) ([2]; intravenous injection, 1 mg/Kg) was 6.71 µM·h and the Vd ([2]; intravenous injection, 1 mg/Kg) was 2.77 L/kg. For the same molecule, the Cmax ([2]; oral gavage, 10 mg/Kg) was 4.26 µM, the Tmax ([2]; oral gavage, 10 mg/Kg) was 1 h and the AUC(0-t) ([2]; oral gavage, 10 mg/Kg) was 47.2 µM·h.
Work on `C[C@H]1Cc2noc(-c3ccc(F)cc3F)c2CN1C(=O)Nc1ccnc(Cl)c1` [Example 22] yielded an EC50 [1] of 35.2 nM.
For `C[C@H]1Cc2noc(-c3ncccn3)c2CN1C(=O)Nc1ccc(F)c(C#N)c1` [Example 23], the EC50 [1] was 25.4 nM, the F ([2]; oral gavage, 3 mg/Kg) was 55.3% and the clearance ([2]; intravenous injection, 1 mg/Kg) was 4.36 mL/min/kg. It also gave a half-life ([2]; intravenous injection, 1 mg/Kg) of 3.03 h, an AUC(0-t) ([2]; intravenous injection, 1 mg/Kg) of 10 µM·h and a Vd ([2]; intravenous injection, 1 mg/Kg) of 1.09 L/kg. It also gave a Cmax ([2]; oral gavage, 3 mg/Kg) of 3.4 µM, a Tmax ([2]; oral gavage, 3 mg/Kg) of 0.5 h and an AUC(0-t) ([2]; oral gavage, 3 mg/Kg) of 16.7 µM·h. For the same molecule, the “Log HBV DNA mean value” ([4]; liver tissue after 7 days of administration, BID, solvent control 6.01) was 4.50 copy number/μL, the “Log HBV DNA mean value” ([4]; liver tissue after 7 days of administration, QD, solvent control 6.01) was 5.18 copy number/μL and the “Log HBV DNA mean value” ([4]; plasma, Day 1, BID, solvent control 2.03) was 1.94 copy number/μL. The “Log HBV DNA mean value” ([4]; plasma, Day 1, QD, solvent control 2.03) was 2.10 copy number/μL, the “Log HBV DNA mean value” ([4]; plasma, Day 3, BID, solvent control 4.47) was 3.02 copy number/μL and the “Log HBV DNA mean value” ([4]; plasma, Day 3, QD, solvent control 4.47) was 3.15 copy number/μL. The “Log HBV DNA mean value” ([4]; plasma, Day 5, BID, solvent control 4.76) was 2.94 copy number/μL, the “Log HBV DNA mean value” ([4]; plasma, Day 5, QD, solvent control 4.76) was 3.92 copy number/μL and the “Log HBV DNA mean value” ([4]; plasma, Day 7, BID, solvent control 3.53) was 2.14 copy number/μL. For the same molecule, the “Log HBV DNA mean value” ([4]; plasma, Day 7, QD, solvent control 3.53) was 3.19 copy number/μL.
Molecule `C[C@H]1Cc2noc(-c3ncccn3)c2CN1C(=O)Nc1cc(F)c(F)c(F)c1` [Example 25] has an EC50 [1] of 14.9 nM.
